Results as given in PubChem BioAssay (NCI).
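Cells were grown in 96-well plates and exposed to each compound for 48 hours at five concentrations; endpoints were interpolated linearly between bracketing concentrations, or set to the highest concentration if not reached. GI50 = concentration required for 50% inhibition of growth. TGI is the concentration that stops growth completely.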

Columns and labels:
Assay in all cases: DTP human tumour cell line panel, 48 h
[1] = system: PC-3 prostate
[2] = system: MALME-3M melanoma
[3] = system: HT29 colon
[4] = system: HOP-62 NSCLC
[5] = system: CAKI-1 renal
[6] = system: COLO 205 colon
[7] = system: UO-31 renal
[8] = system: DU-145 prostate
[9] = system: M14 melanoma
[10] = system: IGROV1 ovarian

Structure (SMILES) | GI50 [1] | TGI [1] | GI50 [2] | TGI [2] | GI50 [3] | TGI [3] | GI50 [4] | TGI [4] | GI50 [5] | TGI [5] | GI50 [6] | TGI [6] | GI50 [7] | TGI [7] | GI50 [8] | TGI [8] | GI50 [9] | TGI [9] | GI50 [10] | TGI [10]
CCCCN(CCCC)CCCn1c(=O)c2c3ccccc3n(C)c2n2nnc(-c3ccccc3)c12 | 18.2 µM | 47.4 µM | 28.4 µM | 90 µM | 7.72 µM | 36.3 µM | 30.6 µM | > 100 µM | 49.8 µM | > 100 µM | 5.01 µM | 62.9 µM | 6.06 µM | 46.8 µM | 47.6 µM | > 100 µM | 21.6 µM | > 100 µM |  | 
C=C(CN1CCN(c2cccc(C(F)(F)F)n2)CC1)c1ccc(C(=S)Nc2ccccc2N)cc1 |  |  |  |  | 3.05 µM | 18.2 µM | 8.08 µM | > 100 µM | 3.26 µM | > 100 µM | 3.19 µM | 11.8 µM | 4.14 µM | > 100 µM | 6.99 µM | > 100 µM | 3.81 µM | 41.3 µM | 6.93 µM | > 100 µM
O=C(/C(=C/c1ccc([N+](=O)[O-])cc1)SCc1ccc(F)cc1)c1ccc(Cl)cc1 | 3.93 µM | 16.2 µM | 10.1 µM | 24.6 µM | 2.38 µM | 6.2 µM | 18.9 µM | 47.3 µM |  |  | 6.46 µM | 28.5 µM | 3.6 µM | 17.8 µM | 38.6 µM | > 100 µM | 3.91 µM | 20.2 µM | 9.4 µM | 38.7 µM
Cc1ncsc1-c1ccc(CNC(=O)[C@@H]2C[C@@H](O)CN2C(=O)[C@@H](NC(=O)C2(C#N)CC2)C(C)(C)C)cc1 | > 100 µM | > 100 µM | > 100 µM | > 100 µM | > 100 µM | > 100 µM | > 100 µM | > 100 µM | 82 µM | > 100 µM | > 100 µM | > 100 µM | > 100 µM | > 100 µM | > 100 µM | > 100 µM |  |  | > 100 µM | > 100 µM
O=C(NCc1ccco1)c1ccc(NC2=C(Cl)C(=O)N(Cc3ccccc3)C2=O)cc1 | 17.5 µM | 32.5 µM |  |  | 35 µM | > 100 µM | 16.5 µM | 31.7 µM | 1.84 µM | 3.39 µM | 28.4 µM | 80.1 µM | 22.2 µM | 57.7 µM | 15.8 µM | 29.2 µM | 15.1 µM | 28.4 µM | 2.12 µM | 35.2 µM
COC(=O)c1ccc(Cl)cc1NC(=O)C1CCCCC1 |  |  |  | > 100 µM |  | > 100 µM |  |  |  | > 100 µM |  | > 100 µM |  | > 100 µM |  |  |  |  |  | 
C/C(=C(\c1ccc(OCCN2CCCCCC2)cc1)c1ccc(OC(=O)Cc2ccccc2)cc1)c1ccc(Cl)cc1 |  |  | 2.86 µM | 5.71 µM | 1.05 µM | 4.01 µM | 2.67 µM | 5.59 µM | 2.74 µM | 5.37 µM | 2.8 µM | 5.56 µM | 2.08 µM | 4.21 µM | 3.15 µM | 6.32 µM | 1.87 µM | 4.15 µM | 2.8 µM | 6.51 µM
COc1cnc2c(c1)C(=O)c1c-2n(CCCNC(C)C)c(=O)c2cc(F)ccc12 | 0.281 µM | 2.55 µM | 0.197 µM | 0.937 µM | 0.0731 µM | 0.33 µM | 0.107 µM | 0.427 µM |  |  | 0.0905 µM | 0.643 µM | 0.0801 µM | 0.34 µM | 0.21 µM | 1.04 µM | 0.23 µM | 1.3 µM | 0.206 µM | 1.92 µM
O=C1OC(c2ccccc2)(c2cc(Br)c(O)c(Br)c2)c2ccccc21 (centres undefined) | 35.6 µM | > 100 µM | 25.3 µM | 77.5 µM |  |  | 17.9 µM | 43.5 µM | 29.2 µM | > 100 µM | 18.2 µM | 39.4 µM | 15.6 µM | 42.3 µM | 27.4 µM | > 100 µM | 18.6 µM | 36.8 µM | 33.6 µM | > 100 µM
COc1ccc2oc(C(=O)O)c3c2c1CCC3 |  |  |  |  |  | > 100 µM |  | > 100 µM |  | > 100 µM |  | > 100 µM |  |  |  |  |  | > 100 µM |  | > 100 µM
O=C1c2ccccc2C(=O)N1C/C=C/CO |  |  |  | > 100 µM |  |  |  | > 100 µM |  | > 100 µM |  | > 100 µM |  | > 100 µM |  |  |  | > 100 µM |  | > 100 µM
OC1C2CCC1C1C3C=CC(C3)C21 (centres undefined) |  |  |  | > 100 µM |  | > 100 µM |  | > 100 µM |  | > 100 µM |  | > 100 µM |  | > 100 µM |  |  |  | > 100 µM |  | > 100 µM
NCCN1C(=O)C2C3c4ccccc4C(c4ccccc43)C2C1=O (centres undefined) |  |  |  | > 100 µM |  | > 100 µM |  | > 100 µM |  | > 100 µM |  | > 100 µM |  | > 100 µM |  |  |  | > 100 µM |  | > 100 µM
O=C(NO)c1ccc(Cn2c(=O)n(-c3ccccc3F)c(=O)c3ccccc32)cc1 | 1.7 µM | 4.31 µM | 0.892 µM | 3.16 µM | 2.02 µM | 10.5 µM |  |  | 2.25 µM | 7.15 µM | 1.39 µM | 3.76 µM | 1.83 µM | 4.75 µM | 2.09 µM | > 100 µM | 1.53 µM | 3.05 µM |  | 
C[n+]1ccc(-c2c3nc(c(-c4cc[n+](C)cc4)c4ccc([n-]4)c(-c4cc[n+](C)cc4)c4nc(c(-c5cc[n+](C)cc5)c5ccc2[n-]5)C=C4)C=C3)cc1.[I-].[Zn+2] |  |  | 18.3 µM | 39.8 µM |  |  | 19.9 µM | 44.2 µM | 20 µM | 41.7 µM | 18.3 µM | 35.8 µM | 17.3 µM | 38.4 µM |  |  | 14 µM | 35.5 µM | 25.4 µM | 57.8 µM
CCOc1ccccc1NC(=O)CCc1n[nH]c(=S)o1 |  |  |  | > 100 µM |  | > 100 µM |  |  |  | > 100 µM |  |  |  | > 100 µM |  |  |  | > 100 µM |  | 
COc1cc2c(cc1OC)C(=O)Cc1ccc(OC)c(OC)c1CN(C)CC2 |  |  |  | > 100 µM |  | > 100 µM |  | > 100 µM |  | > 100 µM |  | > 100 µM |  | > 100 µM |  |  |  | > 100 µM |  | > 100 µM
